This note sets out measurements from patent US20240300913A1, “FLAVONE DERIVATIVE AND USE THEREOF FOR IMPROVING PULMONARY FIBROSIS” (A-CHEMBIO CO., LTD, priority 2023, published 2024).

By cell viability is commonly meant a read-out of living cells in per cent, often relative to untreated cells.

For data set [1], the system named is HULEC-5a cells. As to the kind of experiment: Effect upon TGF-β1 treatment in Hulec-5a cells (western blot of protein levels). It is filed as cell-based, human. As to conditions: Hulec-5a cells, 5 ng/mL TGF-β1 and compound, 24 hours, FIG. 31. The procedure:
(§1) 1.2×10^6 Hulec-5a cells, derived from pulmonary vessels, were suspended in a medium, dispensed into a 100-mm plate, and incubated for 24 hours. After 24 hours of incubation, each plate was treated with TGF-β1 (10 ng/ml) alone or in combination with novel flavone derivative I at varying concentrations or a predetermined concentration and/or nintedanib (NIDB), a therapeutic drug for idiopathic pulmonary fibrosis and interstitial lung disease. After 3, 24, and 48 hours of incubation, the cells were lysed with RIPA lysis buffer ([50 mM Tris]-Cl (pH, 7.4), 1% NP-40, 150 mM NaCl, 1 mM EDTA, and 1 mM phenylmethylsulfonyl fluoride (PMSF)) containing MG-132 (10 μM, proteasome inhibitor, protect the HIF-1α subunit from proteasome degradation). Next, only the supernatant was collected by centrifugation (at 13,000 rpm for 7 minutes) at 4° C., and the proteins were separated by SDS-polyacrylamide gel electrophoresis (SDS-PAGE). The separated proteins were transferred to a polyvinylidene difluoride membrane (PVDF membrane), reacted in 5% nonfat dry milk for 2 hours, and then reacted with primary antibodies at 4° C. overnight. After overnight, the proteins further reacted with secondary antibodies corresponding to the respective primary antibodies. Then, the protein band was examined, according to the manufacturer's protocol, using an ECL kit.
The effect of novel flavone derivative II upon TGF-β1 treatment in Hulec-5a cells was evaluated in the same manner as in Example 1 above.
The effect of novel flavone derivative III upon TGF-β1 treatment in Hulec-5a cells was evaluated in the same manner as in Example 1 above.
(Immunoblotting shows a protein as a band on a membrane.)

Data set [2] concerns A549 cells. As to the kind of experiment: Effect upon TGF-β1 treatment in A549 cells (western blot of protein levels). In kind it is cell-based. As to conditions: 5 ng/mL TGF-β1 and compound, 24 hours, FIG. 30. As for the experimental part: 3.5*10^5 A549 cells, derived from lung cancer, were suspended in a medium, dispensed into a 60-mm plate, and incubated for 48 hours. After 48 hours of incubation, each plate was treated with TGF-β1 (10 ng/ml) alone or in combination with novel flavone derivative I at varying concentrations or a predetermined concentration and/or nintedanib (NIDB), a therapeutic drug for idiopathic pulmonary fibrosis and interstitial lung disease as a positive control. […] Next, only the supernatant was collected by centrifugation (at 14,000 rpm for 10 minutes) at 4° C., and the proteins were separated by SDS-polyacrylamide gel electrophoresis (SDS-PAGE). The separated proteins were transferred to a polyvinylidene difluoride membrane (PVDF membrane), reacted in 5% nonfat dry milk for 3 hours, and then reacted with primary antibodies at 4° C. for 12 hours. After 12 hours, the proteins further reacted with secondary antibodies corresponding to the respective primary antibodies. Then, the protein band was examined, according to the manufacturer's protocol, using an ECL kit.
The effect of novel flavone derivative II upon TGF-β1 treatment in A549 cells was evaluated in the same manner as in Example 1 above. FIGS. 20 and 21 show the results thereof.
The effect of novel flavone derivative III upon TGF-β1 treatment in A549 cells was evaluated in the same manner as in Example 1 above.

The subject of data set [3] is HLF cells. The experiment in a line: MTT cytotoxicity evaluation in HLF cells. It is filed as cell-based, human. As to conditions: concentrations of 15 and 20 μM, incubated for 24 hours, compared to untreated control. As for the experimental part:
(§2) To confirm the effect of novel flavone derivative I on cell viability, human lung fibroblasts (HLF) were used to examine cell viability with MTT [3-(4,5-dimethylthiazol-2-yl)-2,5-diphenyltetrazolium bromide]. After being suspended in a medium, HLF cells were dispensed into a 96-well plate and incubated for 24 hours. […] After incubation, all media was removed, and MTT was diluted (0.5 mg/mL) in phosphate-buffered saline (PBS). Then, 200 μL of the diluted MTT was dispensed into each well, and incubation was performed in a CO2 incubator for 4 hours. After 4 hours, the MTT solution was removed, and 160 μL of dimethyl sulfoxide (DMSO) was dispensed into each well to dissolve the formazan precipitate for 30 minutes. Next, the absorbance was measured at 570 nm.
(§3) Cytotoxicity tests of novel flavone derivative II (Achem II) on A549 cells, HULEC-5a cells, and HLF cells were performed in the same manner as in Example 1 above, using the MTT assay. The results thereof are shown in FIGS. 17 to 19 as cell viability (%) after 24, 48, and 72 hours compared to that of the control group, the untreated sample group.
(§4) Cytotoxicity tests of novel flavone derivative III (Achem III) on A549 cells, HULEC-5a cells, and HLF cells were performed in the same manner as in Example 1 above, using the MTT assay. The results thereof are shown in FIGS. 27 to 29 as cell viability (%) after 24, 48, and 72 hours compared to that of the control group, the untreated sample group.

For data set [4], the system named is HULEC-5a cells. As to the kind of experiment: MTT cytotoxicity evaluation in HULEC-5a cells. In kind it is cell-based, human. As to conditions: compared to untreated control. As for the experimental part: as §2, with “viability, HULEC-5a,” for “viability,”, “microvascular endothelial cells,” for “fibroblasts (HLF)”, “HULEC-5a” for “HLF”
as §3, §4

For data set [5], the system named is A549 cells. As to the kind of experiment: MTT cytotoxicity evaluation in A549 cells. In kind it is cell-based. As to conditions: all treatment concentrations up to 20 μM, incubated for 24, 48, and 72 hours, compared to untreated control. The procedure:
To confirm the effect of novel flavone derivative I on cell viability, A549 cells, derived from lung cancer, were used to examine cell viability with MTT [3-(4,5-dimethylthiazol-2-yl)-2,5-diphenyltetrazolium bromide]. After being suspended in a medium, A549 cells were dispensed into a 96-well plate and incubated for 24 hours. After 24 hours, 200 μL of a medium containing 0 to 20 μM BGC was added to each well of the plate and incubated for 24 or 48 hours. After incubation, MTT was diluted (0.5 mg/ml) in phosphate-buffered saline (PBS). Then, 20 μL of the diluted MTT was dispensed into each well, and incubation was performed in a CO2 incubator for 4 hours. After 4 hours, the MTT solution was removed, and 200 μL of dimethyl sulfoxide (DMSO) was dispensed into each well to dissolve the formazan precipitate for 5 minutes. Next, the absorbance was measured at 595 nm.
as §3, §4

Data set [6] deals with HLF cells. As to the kind of experiment: Effect upon TGF-β1 treatment in HLF cells (western blot of protein levels). It is filed as cell-based, human. As to conditions: 5 ng/mL TGF-β1 and compound, 24 hours, FIG. 32. As for the experimental part:
as §1, with “After suspending 5×10^6 human lung fibroblast (HLF) cells in a medium, […]” for “1.2×10^6”, “[…]” for “in a”, “hours. […]” for “hours.”, “24” for “24 hours of incubation, each plate was treated with TGF-β1 (10 ng/ml) alone or in combination with novel flavone derivative I at varying concentrations or a predetermined concentration and/or nintedanib (NIDB), a therapeutic drug for idiopathic pulmonary fibrosis and interstitial lung disease. After 3, 24,”
The effect of novel flavone derivative II upon TGF-β1 treatment in HLF cells was evaluated in the same manner as in Example 1 above.
The effect of novel flavone derivative III upon TGF-β1 treatment in HLF cells was evaluated in the same manner as in Example 1 above.

For `COc1ccc(-c2c(-c3ccc(O)c(OC)c3)oc3cc(OC)c(OC)cc3c2=O)cc1` [novel flavone derivative III, 2-(4-hydroxy-3-methoxyphenyl)-6,7-dimethoxy-3-(4-methoxyphenyl)-4H-chromen-4-one], the “levels of fibronectin, COL4, and COL3, increased by TGF-β1 treatment” value with HULEC-5a cells [1] and in the data set on A549 cells [2] was “decreased” in each case. Besides, the cell viability in the data set on HLF cells [3] is given as at most 80%; in the data set on HULEC-5a cells [4] (concentration of 20 μM, incubated for 24 hours) it was at most 80%; in the data set on HULEC-5a cells [4] (concentrations up to 15 μM, incubated for 24, 48, and 72 hours), at least 80%; in the data set with A549 cells [5], at least 80%. Also, the “levels of fibronectin, COL4, COL1, α-SMA, HIF-1α, and NOX2, increased by TGF-β1 treatment” value in the data set on HLF cells [6] was “decreased”.
